{"source": "patent US20050123912A1", "about": "“Nucleic-acid associated proteins” (priority 2002, published 2005)", "key": {"[1]": {"settings": "relative to progesterone; cited from earlier work"}, "[2]": {"system": "SEQ ID NO:64 expression in human C3A liver cells", "assay": "Microarray expression of SEQ ID NO:64 in C3A liver cell cultures treated with steroids", "type": "cell-based", "settings": "early confluent human C3A liver cells, 1 μM, 10 μM, and 100 μM for 1, 3, and 6 hours, compared to untreated cells", "experimental": "Total RNA is isolated from tissue samples using the guanidinium thiocyanate method and poly(A)^+ RNA is purified using the oligo-(dT) cellulose method. Each poly(A)^+ RNA sample is reverse transcribed using MMLV reverse-transcriptase, 0.05 pg/μl oligo-(dT) primer (21mer), 1× first strand buffer, 0.03 units/μl RNase inhibitor, 500 μM dATP, 500 μM dGTP, 500 μM dTTP, 40 μM dCTP, 40 μM dCTP-Cy3 (BDS) or dCTP-Cy5 (Amersham Biosciences). The reverse transcription reaction is performed in a 25 ml volume containing 200 ng poly(A)^+ RNA with GEMBRIGHT kits (Incyte). Specific control poly(A)^+ RNAs are synthesized by in vitro transcription from non-coding yeast genomic DNA. After incubation at 37° C. for 2 hr, each reaction sample (one with Cy3 and another with Cy5 labeling) is treated with 2.5 ml of 0.5M sodium hydroxide and incubated for 20 minutes at 85° C. to the stop the reaction and degrade the RNA. Samples are purified using two successive CHROMA SPIN 30 gel filtration spin columns (Clontech, Palo Alto Calif.) and after combining, both reaction samples are ethanol precipitated using 1 ml of glycogen (1 mg/ml), 60 ml sodium acetate, and 300 ml of 100% ethanol. The sample is then dried to completion using a SpeedVAC (Savant Instruments Inc., Holbrook N.Y.) and resuspended in 14 μl 5×SSC/0.2% SDS.\nSequences of the present invention are used to generate array elements. Each array element is amplified from bacterial cells containing vectors with cloned cDNA inserts. PCR amplification uses primers complementary to the vector sequences flanking the cDNA insert. Array elements are amplified in thirty cycles of PCR from an initial quantity of 1-2 ng to a final quantity greater than 5 μg. Amplified array elements are then purified using [sequence]-400 (Amersham Biosciences). […]\nReporter-labeled hybridization complexes are detected with a microscope equipped with an Innova 70 mixed gas 10 W laser (Coherent, Inc., Santa Clara Calif.) capable of generating spectral lines at 488 nm for excitation of Cy3 and at 632 nm for excitation of Cy5. […]"}, "[3]": {"system": "SEQ ID NO:61 expression in human peripheral blood mononuclear cells (PBMCs)", "assay": "Microarray expression of SEQ ID NO:61 in PBMCs treated with acetaminophen", "type": "cell-based", "settings": "human PBMCs treated with acetaminophen compared to untreated cells", "excerpt": "Therefore, SEQ ID NO:61 is useful in disease staging and in diagnostic assays for immune disorders."}, "[4]": {"settings": "intranasal; relative to hydrocortisone; cited from earlier work"}}, "data": [{"compound": "6α-methyl-17-hydroxyprogesterone [medroxyprogesterone]", "values": [{"measurement": "pharmacological activity greater than progesterone", "setting": "[1]", "result": "about 15 times"}, {"measurement": "expression of SEQ ID NO:64", "setting": "[2]", "result": "decreased expression"}]}, {"compound": "CC(=O)Nc1ccc(O)cc1", "note": "[acetaminophen]", "values": [{"measurement": "decrease in expression of SEQ ID NO:61", "setting": "[3]", "result": "two-fold"}]}, {"compound": "C[C@H]1C[C@H]2[C@@H]3CCC4=CC(=O)C=C[C@]4(C)[C@@]3(Cl)[C@@H](O)C[C@]2(C)[C@@]1(O)C(=O)CO", "note": "[beclomethasone]", "values": [{"measurement": "anti-inflammatory and vasoconstrictive effects greater than those produced by hydrocortisone", "setting": "[4]", "result": 5000, "unit": "times"}, {"measurement": "expression of SEQ ID NO:64", "setting": "[2]", "result": "decreased expression"}]}, {"compound": "C[C@]12C=CC(=O)C=C1CC[C@@H]1[C@@H]2C(=O)C[C@@]2(C)[C@H]1CC[C@]2(O)C(=O)CO", "note": "[prednisone]", "values": [{"measurement": "expression of SEQ ID NO:64", "setting": "[2]", "result": "decreased expression"}]}]}
